System: alopecia in mice
Test: Animal experiment: therapeutic effect on alopecia in bilaterally ovariectomized mice after oral administration
Assay type: in vivo
Settings: for Cured / Ineffective / Ameliorated: number of mice of 10 per group; for Cured / Ineffective / Ameliorated / cure rate / Total effective rate (%) / back hair of mice after administration (FIGS. 3, 8 and 9): ovariectomized female mice, oral 10 mg/kg/day, 4 weeks; for Cured: cured = no difference with the normal group; for Ineffective: no difference from the model group; for Ameliorated: significant difference from the model group; for cure rate / Total effective rate (%): 10 mice per group; for back hair of mice after administration (FIGS. 3, 8 and 9): compared with the normal group (FIG. 1); for promoting hair follicle growth: summary statement
Experimental: Experiment method: 100 8-week-old female mice were divided into 10 groups with 10 mice in each group. They were randomly divided into a normal group, a model group and administration groups. The mice in the model group and the administration groups were fasted overnight and subjected to bilateral ovariectomy after anesthesia with 0.1 ml of 10% chloral hydrate. After the bilateral ovariectomy, penicillin injection 0.1 ml/per mouse was injected once a day for seven times to prevent infection. After 4 weeks of modeling, the experiment was carried out by oral administration. The medicament was prepared with normal saline, and administered 10 mg/kg/day to each mouse in the administration groups. The normal group and model group were given only normal saline. After 4 weeks of administration, the hair on the back of the mice was observed.
Cured: Alopecia was completely cured, with no difference with the normal group.
Ameliorated: Alopecia was ameliorated, with significant difference from the model group, but small difference from the normal group.
Ineffective: Alopecia was not ameliorated, with no difference from the model group.

Structure (SMILES) | Cured | Ineffective | Ameliorated | cure rate [%] | Total effective rate (%) (10 mg/kg/day) | back hair of mice after administration (FIGS. 3, 8 and 9) | promoting hair follicle growth | Total effective rate (%)
CC(=O)/C(=N\Nc1ccccc1C(=O)O)C(=O)N1CCOCC1 [Compound 28] | 10 | 0 | 0 | 100 | 100 | completely recovered | significant advantages | 
CCOC(=O)c1sc(NC(=O)/C(=N/Nc2ccccc2C(=O)OC)C(C)=O)nc1C [Compound 4] | 8 | 0 | 2 |  | 100 |  | significant advantages | 
CCOC(=O)c1sc(NC(=O)/C(=N/Nc2c(C#N)cccc2C(=O)O)C(C)=O)nc1C [Compound 12] | 8 | 1 | 1 |  |  |  |  | 90
CC(=O)/C(=N\Nc1ccccc1C(=O)O)C(=O)Nc1ccccc1 [Compound 24] | 10 | 0 | 0 | 100 | 100 | completely recovered | significant advantages | 
CC(=O)/C(=N\Nc1ccccc1C(=O)O)C(=O)Nc1cccc(O)n1 [Compound 30] | 4 | 3 | 3 |  |  |  |  | 70
CCOC(=O)c1sc(NC(=O)/C(=N/Nc2ccc(F)cc2C(=O)O)C(C)=O)nc1C [Compound 10] | 2 | 5 | 3 |  |  |  |  | 50

Source: patent US12479809B2, “Hydrazone amide derivative and application thereof in preparation of medicaments for preventing and treating alopecia” (SHENZHEN CELL INSPIRE PHARMACEUTICAL DEVELOPMENT CO., LTD., priority 2019, dated 2025)
